Measured values from patent publication EP4772520A1, “NOVEL PRODRUG-TYPE ANTICANCER AGENT TARGETING CANCER-SPECIFIC ENZYME ACTIVITY” (priority 2023, dated 2025).
Like-named read-outs stand apart in the source and are kept apart here.

Assay: Kinetic test in intraperitoneal administration
Type: in vivo, Mice
Settings: 30 mg/kg i.p.
Method: A specific procedure of the pharmacokinetics test is shown below. • (1) SN38-βGal (30 mg/kg) was dissolved in 100 µL of PBS and administered by i.p. • (2) 150 to 200 µL of anesthesia (in the case of a mixture of three types of Domitor + Betorphal + Mitazolam) was intraperitoneally administered 5 minutes before dissection at each time. • (3) The inside of a syringe was coated with sodium heparin, and at each evaluation time, the mouse was quickly stuck to the dissecting pad, and the abdomen was opened without bleeding, and whole blood was collected from the right ventricle with a 23 G needle. 100 µM β-Galactosidase inhibitor was added to whole blood. • (4) After whole blood collection, brain, heart, lung, liver, pancreas, spleen, kidney, stomach, small intestine, large intestine, muscle, and fat were taken out. As the muscle, a muscle near the thigh was resected. The weight of each organ was measured. • (5) Whole blood was centrifuged at 1200 G for 15 min at 4°C, and 200 µL of supernatant was collected. 800 µL of a solution of MeOH/MeCN = 1:1 (containing Rhodamine 123 = 25 µM as an internal standard) was added thereto, and the mixture was allowed to stand for 10 minutes. • (6) After standing, centrifugation was performed at 1700 G for 15 min at 4°C, and the supernatant was collected. About 80 µL of the mixture was fractionated, loaded on a Cosmo Spin Filter G (0.2 um), centrifuged at 12000 G for 5 min at 4°C, and filtered to collect a sample. • (7) Each resected organ was finely cut and put into a tube of Lysing Matrix D, 1000 µL of Lysis Buffer (added with 100 µM β-Galactosidase inhibitor) was added thereto, and the mixture was crushed with a shaker. • (8) The supernatant was collected from the tube of Lysing Matrix, and then centrifuged at 10,000 G for 5 min at 4°C to collect the supernatant to obtain a lysate solution. • (9) To 100 µL of the organ lysate solution, 200 µL of MeOH/MeCN = 1:1 (containing 30 µM of Rhodamine 123 as an internal standard) was added, and the mixture was allowed to stand for 10 minutes. • (10) Centrifugation was performed at 1700 G for 15min at 4°C to collect 200 µL of the supernatant. The supernatant was loaded on a Cosmo Spin Filter G (0.2 µm) and centrifuged at 12000 G for 5 min at 4°C to collect a sample. • (11) 50 µL of purified water and 50 µL of a filtered plasma sample or organ lysate sample were mixed, 10 µL of the mixture was injected into HPLC, and data of the area under the curve of the PDA spectrum at 380 nm (derived from SN 38) and 490 nm (derived from Rhodamine 123) were acquired, and then the respective numerical values were calculated from the volume for blood and the weight for organs by one inspection amount of Rhodamine 123.
A specific procedure of the intraperitoneal concentration evaluation test is shown below. • (1) Intraperitoneal administration (i.p.) was performed on an evaluation amount of the drug. • (2) 2.0 mL of PBS was administered by i.p. at each evaluation time, and the abdomen was immediately massaged and sacrificed so that the drug could be collected as much as possible on the PBS side after administration. A small hole was made in the abdomen, and PBS in the abdominal cavity was quickly collected with a 1.0 mL syringe in a pushing manner, and this solution was used as an peritoneal washing solution. • (3) To 200 µL of the collected peritoneal washing solution, 800 µL (containing Rhodamine 123 = 25 µM) of 800 µL MeCN/MeOH = 1:1 was added to precipitate proteins. The supernatant was collected by centrifugation at 1700 G for 5 min at 4°C. • (4) 80 µL of the recovered supernatant was loaded on a cosmo spin filter G and centrifuged at 12000 G for 5 min at 4°C, and 50 µL of purified water was added to 50 µL of the recovered material to adjust the total amount to 100 µL to prepare a sample. • (5) The concentration of SN38-βGal was measured by HPLC, and the concentration of the recovered peritoneal washing solution was calculated.

In the case of `CCc1c2c(nc3ccc(O[C@@H]4O[C@H](CO)[C@H](O)[C@H](O)[C@H]4O)cc13)-c1cc3c(c(=O)n1C2)COC(=O)[C@]3(O)CC` [SN38-βGal], the “time of highest blood concentration” value is reported as “around 10 minutes”, the organ distribution (10 minutes to 60 minutes after administration) is reported as “the absorption from the small intestine was large, and only a slight distribution was confirmed in the brain” and the intraperitoneal concentration (at 30 minutes) is reported as “about 17%”. For the same molecule, the half-life (mouse, blood, ip, read-out: blood half-life) was roughly 30 min, the AUC(0-inf) (mouse, in vivo, ip) was 15900 ng·h/mL and the AUC(0-t) at 1 h (mouse, in vivo, ip, read-out: AUC0-1h) was 15400 ng·h/mL. The half-life (mouse, in vivo, ip, read-out: t1/2 (converted)) was 11.8 min.
